The subject of the assay is Nematospiroides dubius. Nature of the assay: Evaluation (Efficacy) Test in Mice, Nematospiroides dubius. The class given is in vivo. As to conditions: Heligmosomoides polygyrus, read-out: % Efficacy N.d.; for inhibition in vivo at 0.003 %: 0.003 % diet; for inhibition in vivo at 0.006 %: 0.006 % diet; for inhibition in vivo at 0.0125 %: 0.0125 % diet; for inhibition in vivo at 0.025 %: 0.025 % diet. The text has this:
The primary target parasite of this test is Nematospiroides dubius (Family: Heligmosomidae), which is phylogenetically related to certain economically important parasites of domestic and farm animals. Mice are orally inoculated with 20 to 30 infective N. dubius larvae. Mixed infections are obtained by subsequent inoculation with Aspicularis tetraptera and Hymenolepis nana. Eighteen days after inoculation the mice are divided into groups of four. Each group receives one compound at a specified dose rate, either as a single gavage dose or fed continually in the feed. Four groups of five mice each are utilized as infected, untreated controls. […] Those mice receiving single oral doses (SOD) or a single subcutaneous injection (Sc) of 5 mg./kg. to 100 mg./kg. of animal body weight of the compound under test are treated 22 days after inoculation. Eight days after start of treatment (drug diet) and 4 days post treatment (single dose SOD or Sc), the mice are necropsied, the worms recovered and counted. Percent efficacy for Nematospiroides is calculated using the formula: % Efficacy Equals [formula]
The diet used in the test procedures is a standard commercial mouse chow containing meat and bone meal, dried skimmed milk, wheat germ meal, fish meal, animal liver meal, dried beet pulp, ground extended corn, oat middlings, soybean meal, dehydrated alfalfa meal, cane molasses. animal fat preserved with BHA, vitamin B-12 supplement, calcium panthotenate, choline chloride, folic acid, riboflavin supplement, brewer's dried yeast, thiamine, niacin, vitamin A supplement, D activated plant sterol, vitamin E supplement, dicalcium phosphate, iodized salt, ferric ammonium citrate, iron oxide, manganous oxide, cobalt carbonate, copper oxide and zinc oxide; and the desired level of test compound.
When the drug is administered as a single oral dose, the drug is weighed and suspended in 0.2% agar, thoroughly mixed and orally introduced at the required volume.

Molecules are shown by their SMILES. Where two headings read alike, the source gives them in different places.

Turning to `CC(=P(c1ccccc1)(c1ccccc1)c1ccccc1)[P+](c1ccccc1)(c1ccccc1)c1ccccc1` [Type II, R2 Methyl, X I, Triphenyl[1-(triphenylphosphoranylidene)ethyl]-phosphonium Iodide], for the setting “po, 168 h, drug diet, 7 days”, the inhibition in vivo at 0.003 % stood at 57%, the inhibition in vivo at 0.006 % was determined as 98% and the inhibition in vivo at 0.0125 % was found to be 99%. Where the note is “po, single oral dose”, the inhibition in vivo at 5 mg/kg was determined as 65%, the inhibition in vivo at 10 mg/kg is 96% and the inhibition in vivo at 25 mg/kg turned out to be 98%. For the same compound, where the note is “sc, subcutaneous”, the inhibition in vivo at 5 mg/kg turned out to be 80%, the inhibition in vivo at 10 mg/kg amounted to 95% and the inhibition in vivo at 25 mg/kg is 100%.
As for `COc1cccc(CC(=P(c2ccccc2)(c2ccccc2)c2ccccc2)[P+](c2ccccc2)(c2ccccc2)c2ccccc2)c1` [Type II, R2 m-methoxybenzyl, X Cl], under “po, 168 h, drug diet, 7 days”, the inhibition in vivo at 0.0125 % came out at 58% and the inhibition in vivo at 0.025 % amounted to 88%. In addition, the inhibition in vivo at 0.05 % (po, 168 h, drug diet, 0.05 % diet, 7 days) was found to be 100%. Also, for the setting “po, single oral dose”, the inhibition in vivo at 50 mg/kg amounted to 58% and the inhibition in vivo at 100 mg/kg stood at 76%.
As for `CCCCCCC(=P(c1ccccc1)(c1ccccc1)c1ccccc1)[P+](c1ccccc1)(c1ccccc1)c1ccccc1` [Type II, R2 n-Hexyl, X Br], for the setting “po, 168 h, drug diet, 7 days”, the inhibition in vivo at 0.006 % was found to be 58%, the inhibition in vivo at 0.0125 % came out at 79% and the inhibition in vivo at 0.025 % was 100%. In addition, where the note is “po, single oral dose”, the inhibition in vivo at 25 mg/kg was determined as 39%, the inhibition in vivo at 50 mg/kg is 61% and the inhibition in vivo at 100 mg/kg stood at 94%.
As for `CCCC(=P(c1ccccc1)(c1ccccc1)c1ccccc1)[P+](c1ccccc1)(c1ccccc1)c1ccccc1` [Type II, R2 n-Propyl, X I], for the setting “po, 168 h, drug diet, 7 days”, the inhibition in vivo at 0.003 % was found to be 50%, the inhibition in vivo at 0.006 % worked out at 86%, the inhibition in vivo at 0.0125 % is 88% and the inhibition in vivo at 0.025 % amounted to 100%. For the same compound, where the note is “po, single oral dose”, the inhibition in vivo at 10 mg/kg was determined as 42%, the inhibition in vivo at 25 mg/kg came to 63% and the inhibition in vivo at 50 mg/kg worked out at 100%.

For the origin of these results see US3957978A, “Phosphonium anti-parasitics” (American Cyanamid Company, priority 1975, dated 1976).
